# Data from patent US20230172915A1, “DHODH INHIBITOR FOR THE TREATMENT OF COVID-19” (priority 2020, published 2023).
# Read-outs that look alike come from different tables or passages of the source.
# How the values were obtained:
# [1] = test system: TH2 cells plus venular endothelial cells (/TH2); test: BioMAP profiling, /TH2 system; assay type: cell-based; details: Endothelial cell; for inhibition at 0.1 µM: /TH2, 100 nM
# Method: The effect of PTC299 on cytokine production was assessed using BioMAP profiling (BioSeek, now part of Eurofins). The BioMAP system is comprised of complex co-cultures of primary peripheral blood mononuclear cells (PBMCs) with other cell types including B cells, fibroblasts, and endothelial cells allowing for the measurement of physiologically relevant biomarker readouts of the activity of a compound. Using this system, cytokine production was evaluated in the following models of primary cell disease models: • Peripheral blood mononuclear cells (PBMCs) plus venular endothelial cells (sAg) • PBMCs plus B cells (BT) • PBMCs plus fibroblasts (HDFSAg) • TH2 cells plus venular endothelial cells (/TH2).
# Abbreviations in Table 4: BCR, B-cell receptor; BT System, co-culture of CD19+ B cells and PBMC that utilizes BCR stimulation and sub-mitogenic TCR stimulation; HDFSAg system, co-culture of human primary dermal fibroblasts and PBMC that is stimulated with sub-mitogenic TCR levels; IL, interleukin; PBMC, Peripheral Blood Mononuclear Cell; SAg system, co-culture of endothelial cells and PBMC stimulated with mitogenic levels of TCR ligands; TCR, T-cell receptor; /TH2 system, co-culture of endothelial cells and Th2 blasts stimulated with TCR ligands and cytokines; Th2, T helper type 2; VEGF, vascular endothelial growth factor.
# [2] = test system: HT1080 human fibrosarcoma cells; test: De novo pyrimidine nucleotide synthesis from 15N-glutamine in HT1080 cells; assay type: cell-based; details: 100 nM
# Description: In this Example, fibrosarcoma cells were used to investigate the effect of PTC299 on pyrimidine nucleotide synthesis. Glutamine is an upstream precursor of dihydroorotic acid in the de novo pyrimidine synthesis pathway, as illustrated in FIG. 1.
# [3] = Rhesus monkey single oral dose PK; assay type: in vivo, Rhesus monkeys; details: single oral 10 mg/kg dose
# Method: FIG. 10 is a plot of PTC299 plasma concentration (µg/mL) vs hours of plasma dihydroorotate (DHO) and PTC299 concentrations after a single dose of PTC299 was administered to a single monkey.
# The dosing regimen used in the current study was also supported by experiments performed in Rhesus monkeys. Monkeys were given a single oral 10 mg/kg dose of PTC299. The DHO plasma level increased after dosing, peaked at 24 hours and then decreased, as illustrated in FIG. 10. […] The AUC for PTC299 is consistent with that observed in the healthy volunteer study PTC299-ONC-002-HV indicating this exposure would result in inhibition of DHODH and supports the use of the 200 mg BID dosing regimen in the current study.
# [4] = test system: Hepatitis C virus (replicon); test: Antiviral activity, Hepatitis C virus replicon (Huh7 cells); assay type: cell-based; details: Huh-7
# [5] = test system: SARS-CoV-2; test: SARS-CoV-2 infected Vero cells, N-protein antibody and DAPI staining; details: 30 nM, 300 nM
# [6] = Phase 1 multiple dose study PTC299-ONC-002-HV in healthy volunteers (PK, safety); assay type: in vivo, human; details: for AUC: read-out: AUCO-4
# Method: The PK of the 200 mg BID dosed for 7 days and 50 mg for 7 days was evaluated in a phase 1, escalating, multiple dose, safety, tolerability, and PK study, PTC299-ONC-002-HV (N=32; n=24 received PTC299 and 8 received placebo).
# Study PTC299-ONC-002-HV had 2 stages; in Stage 1, doses ranged from 0.3 to 1.2 mg/kg BID, and in Stage 2, a 1.6 mg/kg TID dose was administered. Patients received the capsule formulation of PTC299 for 7 days in both stages. Dose of 200 mg tablet is approximately 1.2 mg/kg capsule whereas 50 mg tablet is approximately 0.3 mg/kg of capsule formulation.
# [7] = test system: Rift Valley fever virus; test: microbe, parasite or virus in culture; assay type: cell-based; details: HeLa, read-out: EC50 Rift Valley fever virus
# [8] = Relative bioavailability tablet versus capsule; details: in vivo, oral; administered with food; read-out: relative bioavailability of tablet formulation compared with the capsule
# Method: (§1) The rationale for this dosing is based on the following: • The dosing regimen utilizes results from PTC’s extensive clinical, safety, and clinical pharmacology experience with the capsule formulation of PTC299 that was used in prior solid tumor clinical studies. • The tablet formulation has approximately 40% relative bioavailability compared with the capsule when administered with food. • The 200 mg BID dosing for 7 days have been tested previously in healthy volunteers in study PTC299-ONC-002-HV with no serious adverse events. […] The dosing of 200 mg BID for the first 7 days will raise the exposure of the drug quickly to accommodate the need for rapid onset of PTC299 activity..
# [9] = Clinical studies of PTC299 (oncology patients, healthy volunteers): tolerability; assay type: in vivo, human
# Description: PTC299 has been extensively evaluated in 9 clinical studies; 5 were in oncology (n=134) and 4 were in healthy volunteers (n=169).
# as §1
# [10] = test system: Respiratory syncytial virus; test: Antiviral activity, Respiratory syncytial virus (Hep2 cells); assay type: cell-based; details: human respiratory syncytial virus, HEp-2
# [11] = AML phase 1b study PTC299-HEM-001-LEU, PK; assay type: in vivo, human; details: 80 mg QD tablet loading dose for 7 days followed by 40 mg maintenance dose (cohort 2), AML patients
# Method: It was anticipated that elimination would not be saturated with 50 mg tablet QD after 7 days of 200 mg tablet BID dosing. This is supported by results from the ongoing AML open-label, non-randomized, phase 1b study, PTC299-HEM-001-LEU.
# [12] = human, plasma, oral, 0.3 mg/kg, 0.3 mg/kg BID, Day 1, capsule
# [13] = human, plasma, oral, 0.3 mg/kg, 0.3 mg/kg BID, Day 7, capsule
# [14] = human, plasma, oral, 0.6 mg/kg, 0.6 mg/kg BID, Day 1, capsule
# [15] = human, plasma, oral, 0.6 mg/kg, 0.6 mg/kg BID, Day 7, capsule
# [16] = human, plasma, oral, 1.2 mg/kg, 1.2 mg/kg BID, Day 1, capsule
# [17] = human, plasma, oral, 1.2 mg/kg, 1.2 mg/kg BID, Day 7, capsule
# [18] = human, plasma, oral, 1.6 mg/kg, 1.6 mg/kg TID, Day 1, capsule
# [19] = human, plasma, oral, 1.6 mg/kg, 1.6 mg/kg TID, Day 7, capsule
smiles,measurement,setting,value
"COc1ccc([C@H]2c3[nH]c4ccc(Cl)cc4c3CCN2C(=O)Oc2ccc(Cl)cc2)cc1 [PTC299, 4-chlorophenyl (S)-6-chloro-1-(4-methoxyphenyl)-1,3,4,9-tetrahydro-2H-pyrido[3,4-b]indole-2-carboxylate]",inhibition at 0.01 µM,"[1]; /TH2, 10 nM, read-out: % Inhibition MCP-1 (converted)",21%
same,inhibition at 0.1 µM,[1]; read-out: % Inhibition MCP-1 (converted),25%
same,inhibition at 0.1 µM,[1]; read-out: % Inhibition sIL-17,23%
same,suppression of de novo pyrimidine nucleotide biosynthesis,[2],resulted in suppression of de novo pyrimidine nucleotide biosynthesis
same,AUC,"[3]; plasma, read-out: AUC of PTC299",22500 ng·h/mL
same,Cmax,"[3]; plasma, read-out: Cmax of PTC299",2510 ng/mL
same,half-life,"[3]; plasma, read-out: Half-life of PTC299 (converted)",33 h
same,Tmax of PTC299,[3],2 hr post-dose
same,EC50,[4],36 nM
same,viability of the cells (DAPI stain),[5]; 3 µM,not cytotoxic
same,viral levels by N-protein antibody staining,[5]; 3 µM versus untreated controls,Increasing the PTC299 concentration led to greater reductions
same,Tl/2,"[6]; 0.3 mg/kg BID, Day 7, capsule",164 h
same,Tmax,"[6]; 0.6 mg/kg BID, Day 1, capsule",3.0 h
same,Tl/2,"[6]; 0.6 mg/kg BID, Day 7, capsule",210 h
same,Tl/2,"[6]; 1.2 mg/kg BID, Day 7, capsule",228 h
same,Tl/2,"[6]; 1.6 mg/kg TID, Day 7, capsule",225 h
same,SAEs during study PTC299-ONC-002-HV,"[6]; healthy volunteers, 7 days, 0.3 to 1.2 mg/kg BID and 1.6 mg/kg TID",no SAEs occurred
same,Cmax,[6]; [12],280 ng/mL
same,AUC,[6]; [12],4310 ng·h/mL
same,Tmax,"[6]; human, plasma, oral, 0.3 mg/kg, 0.3 mg/kg BID, Day 1, capsule, read-out: Tmax",4 h
same,Cmax,[6]; [13],510 ng/mL
same,AUC,[6]; [13],8440 ng·h/mL
same,Tmax,"[6]; human, plasma, oral, 0.3 mg/kg, 0.3 mg/kg BID, Day 7, capsule, read-out: Tmax",3.5 h
same,Cmax,[6]; [14],710 ng/mL
same,AUC,[6]; [14],10100 ng·h/mL
same,Cmax,[6]; [15],1110 ng/mL
same,AUC,[6]; [15],18600 ng·h/mL
same,Tmax,"[6]; human, plasma, oral, 0.6 mg/kg, 0.6 mg/kg BID, Day 7, capsule, read-out: Tmax",4 h
same,Cmax,[6]; [16],1140 ng/mL
same,AUC,[6]; [16],18000 ng·h/mL
same,Tmax,"[6]; human, plasma, oral, 1.2 mg/kg, 1.2 mg/kg BID, Day 1, capsule, read-out: Tmax",3.5 h
same,Cmax,[6]; [17],2110 ng/mL
same,AUC,[6]; [17],~32900 ng·h/mL
same,Tmax,"[6]; human, plasma, oral, 1.2 mg/kg, 1.2 mg/kg BID, Day 7, capsule, read-out: Tmax",4 h
same,Cmax,[6]; [18],1670 ng/mL
same,AUC,[6]; [18],37100 ng·h/mL
same,Cmax,[6]; [19],3530 ng/mL
same,AUC,[6]; [19],78600 ng·h/mL
same,EC50,[7],13 nM
same,bioavailability,[8],~40%
same,tolerability across 9 clinical studies,"[9]; oncology n=134, healthy volunteers n=169, range of dosing regimens",generally well tolerated
same,dose-related hepatotoxicity,[9]; prior clinical studies,observed at higher doses and longer treatment durations (>85 days)
same,EC50,[10],4 nM
same,time to steady state,[11],~15 days
